# According to patent publication US20240399142A1, “Methods Of Using Alternating Electric Fields And Checkpoint Inhibitors” (NOVOCURE GMBH, priority 2023, published 2024):
# Test: LUNAR study safety: adverse events per CTCAE version 4.03, safety population
# Assay type: in vivo, human
# [1] = Grade 3, nervous system disorders
# [2] = Grade 3, renal and urinary disorders
# [3] = Grade 3, respiratory, thoracic, and mediastinal disorders
# [4] = Grade 3, skin and subcutaneous tissue disorders
# Protocol: Safety and treatment data were compiled from all patients who received any study therapy and were analyzed according to the actual treatment received. Analyses were performed using SAS software, version 9.4 (SAS Institute).
smiles,measurement,setting,value
"CC(=O)O[C@@]12CO[C@@H]1C[C@H](O)[C@@]1(C)C(=O)[C@H](O)C3=C(C)[C@@H](OC(=O)[C@H](O)[C@@H](NC(=O)OC(C)(C)C)c4ccccc4)C[C@@](O)([C@@H](OC(=O)c4ccccc4)[C@H]21)C3(C)C [Docetaxel, docetaxel]",Alopecia,All grades,22 (32.4) no. (%)
same,Anemia,All grades,19 (27.9) no. (%)
same,Any adverse event,All grades,61 (89.7) no. (%)
same,Arthralgia,All grades,7 (10.3) no. (%)
same,Asthenia,All grades,10 (14.7) no. (%)
same,Back pain,All grades,4 (5.9) no. (%)
same,Constipation,All grades,10 (14.7) no. (%)
same,Cough,All grades,11 (16.2) no. (%)
same,Decreased appetite,All grades,11 (16.2) no. (%)
same,Dermatitis,All grades,0 no. (%)
same,Diarrhea,All grades,12 (17.6) no. (%)
same,Dysphagia,All grades,1 (1.5) no. (%)
same,Dyspnea,All grades,19 (27.9) no. (%)
same,Fatigue,All grades,18 (26.5) no. (%)
same,Headache,All grades,6 (8.8) no. (%)
same,Hypoalbuminemia,All grades,8 (11.8) no. (%)
same,Hypokalemia,All grades,8 (11.8) no. (%)
same,Hyponatremia,All grades,4 (5.9) no. (%)
same,Nausea,All grades,10 (14.7) no. (%)
same,Neutropenia,All grades,15 (22.1) no. (%)
same,Neutrophil count decreased,All grades,6 (8.8) no. (%)
same,Oedema peripheral,All grades,9 (13.2) no. (%)
same,Pleural effusion,All grades,8 (11.8) no. (%)
same,Pneumonia,All grades,11 (16.2) no. (%)
same,Pruritus,All grades,0 no. (%)
same,Pyrexia,All grades,9 (13.2) no. (%)
same,Rash,All grades,2 (2.9) no. (%)
same,Rash maculopapular,All grades,3 (4.4) no. (%)
same,Skin irritation,All grades,0 no. (%)
same,Upper respiratory tract infection,All grades,1 (1.5) no. (%)
same,Vomiting,All grades,7 (10.3) no. (%)
same,White blood cell count decreased,All grades,7 (10.3) no. (%)
same,Acute myocardial infarction,Grade 3,0 no. (%)
same,Adenocarcinoma of colon,Grade 3,0 no. (%)
same,Alanine aminotransferase increased,Grade 3,1 (1.5) no. (%)
same,Anemia,Grade 3,8 (11.8) no. (%)
same,Anemia macrocytic,Grade 3,1 (1.5) no. (%)
same,Any adverse event,Grade 3,23 (33.8) no. (%)
same,Arthralgia,Grade 3,0 no. (%)
same,Ascites,Grade 3,0 no. (%)
same,Aspergillus infection,Grade 3,0 no. (%)
same,Asthenia,Grade 3,4 (5.9) no. (%)
same,Atrial tachycardia,Grade 3,1 (1.5) no. (%)
same,Autoimmune colitis,Grade 3,0 no. (%)
same,Back pain,Grade 3,0 no. (%)
same,Blood bilirubin increased,Grade 3,0 no. (%)
same,Bone pain,Grade 3,1 (1.5) no. (%)
same,Bronchiolitis,Grade 3,0 no. (%)
same,Bronchitis,Grade 3,0 no. (%)
same,C-reactive protein increased,Grade 3,0 no. (%)
same,Cancer pain,Grade 3,1 (1.5) no. (%)
same,Cardiac failure congestive,Grade 3,0 no. (%)
same,Cardiac tamponade,Grade 3,0 no. (%)
same,Cardiac ventricular thrombosis,Grade 3,0 no. (%)
same,Cataract,Grade 3,0 no. (%)
same,Chest pain,Grade 3,0 no. (%)
same,Cholangitis,Grade 3,1 (1.5) no. (%)
same,Cholecystitis,Grade 3,0 no. (%)
same,Cholelithiasis,Grade 3,0 no. (%)
same,Clostridium bacteremia,Grade 3,0 no. (%)
same,Coronary artery disease,Grade 3,0 no. (%)
same,Decreased appetite,Grade 3,0 no. (%)
same,Dehydration,Grade 3,1 (1.5) no. (%)
same,Diarrhea,Grade 3,0 no. (%)
same,Diverticulitis,Grade 3,0 no. (%)
same,Drug hypersensitivity,Grade 3,1 (1.5) no. (%)
same,Encephalitis,Grade 3,0 no. (%)
same,Esophagitis,Grade 3,0 no. (%)
same,Euthanasia,Grade 3,0 no. (%)
same,Fatigue,Grade 3,4 (5.9) no. (%)
same,Febrile neutropenia,Grade 3,3 (4.4) no. (%)
same,Femoral neck fracture,Grade 3,0 no. (%)
same,Forced expiratory volume decreased,Grade 3,1 (1.5) no. (%)
same,Gastroenteritis norovirus,Grade 3,1 (1.5) no. (%)
same,Gastroenteritis salmonella,Grade 3,0 no. (%)
same,General physical health deterioration,Grade 3,0 no. (%)
same,Hematochezia,Grade 3,0 no. (%)
same,Hepatic enzyme increased,Grade 3,0 no. (%)
same,Hip fracture,Grade 3,0 no. (%)
same,Hypercalcemia,Grade 3,0 no. (%)
same,Hyperglycemia,Grade 3,1 (1.5) no. (%)
same,Hyperkalaemia,Grade 3,0 no. (%)
same,Hypertriglyceridaemia,Grade 3,0 no. (%)
same,Hypoalbuminemia,Grade 3,1 (1.5) no. (%)
same,Hypocalcaemia,Grade 3,0 no. (%)
same,Hypokalemia,Grade 3,0 no. (%)
same,Hyponatremia,Grade 3,2 (2.9) no. (%)
same,Ileus,Grade 3,1 (1.5) no. (%)
same,Infection,Grade 3,0 no. (%)
same,Intestinal dilatation,Grade 3,1 (1.5) no. (%)
same,Intestinal hemorrhage,Grade 3,1 (1.5) no. (%)
same,Intestinal perforation,Grade 3,0 no. (%)
same,Large intestine perforation,Grade 3,0 no. (%)
same,Leukopenia,Grade 3,3 (4.4) no. (%)
same,Liver disorder,Grade 3,1 (1.5) no. (%)
same,Localized oedema,Grade 3,0 no. (%)
same,Lung abscess,Grade 3,0 no. (%)
same,Lymphocyte count decreased,Grade 3,0 no. (%)
same,Lymphopenia,Grade 3,0 no. (%)
same,Malignant ascites,Grade 3,1 (1.5) no. (%)
same,Malignant pleural effusion,Grade 3,1 (1.5) no. (%)
same,Malnutrition,Grade 3,0 no. (%)
same,Metastases to bone,Grade 3,0 no. (%)
same,Metastases to central nervous system,Grade 3,2 (2.9) no. (%)
same,Metastases to meninges,Grade 3,0 no. (%)
same,Metastases to skin,Grade 3,0 no. (%)
same,Mouth ulceration,Grade 3,0 no. (%)
same,Mucosal inflammation,Grade 3,1 (1.5) no. (%)
same,Multiple organ dysfunction syndrome,Grade 3,0 no. (%)
same,Muscular weakness,Grade 3,1 (1.5) no. (%)
same,Myalgia,Grade 3,0 no. (%)
same,Myocardial infarction,Grade 3,1 (1.5) no. (%)
same,Nausea,Grade 3,0 no. (%)
same,Neck pain,Grade 3,1 (1.5) no. (%)
same,Neuropathy peripheral,Grade 3,0 no. (%)
same,Neutropenia,Grade 3,1 (1.5) no. (%)
same,Neutrophil count decreased,Grade 3,2 (2.9) no. (%)
same,Non-cardiac chest pain,Grade 3,1 (1.5) no. (%)
same,Oedema peripheral,Grade 3,2 (2.9) no. (%)
same,Oral candidiasis,Grade 3,0 no. (%)
same,Pancreatic failure,Grade 3,1 (1.5) no. (%)
same,Pancreatitis,Grade 3,0 no. (%)
same,Pericardial effusion,Grade 3,0 no. (%)
same,Peripheral sensory,Grade 3,1 (1.5) no. (%)
same,Platelet count decreased,Grade 3,0 no. (%)
same,Pneumonia,Grade 3,7 (10.3) no. (%)
same,Pneumonia pseudomonal,Grade 3,0 no. (%)
same,Pneumonia staphylococcal,Grade 3,0 no. (%)
same,Pyelonephritis,Grade 3,0 no. (%)
same,Pyopneumothorax,Grade 3,1 (1.5) no. (%)
same,Pyrexia,Grade 3,0 no. (%)
same,Refeeding syndrome,Grade 3,1 (1.5) no. (%)
same,Respiratory tract infection,Grade 3,0 no. (%)
same,Right ventricular failure,Grade 3,1 (1.5) no. (%)
same,Sepsis,Grade 3,1 (1.5) no. (%)
same,Septic shock,Grade 3,0 no. (%)
same,Skin infection,Grade 3,0 no. (%)
same,Stomatitis,Grade 3,0 no. (%)
same,Subileus,Grade 3,0 no. (%)
same,Thrombocytopenia,Grade 3,0 no. (%)
same,Thyroiditis subacute,Grade 3,0 no. (%)
same,Tumor pain,Grade 3,0 no. (%)
same,Upper respiratory tract infection,Grade 3,0 no. (%)
same,Urinary tract infection,Grade 3,0 no. (%)
same,Urosepsis,Grade 3,0 no. (%)
same,Vomiting,Grade 3,0 no. (%)
same,Weight decreased,Grade 3,0 no. (%)
same,White blood cell count decreased,Grade 3,5 (7.4) no. (%)
same,Brain oedema,[1],0 no. (%)
same,Cauda equina syndrome,[1],0 no. (%)
same,Dysarthria,[1],0 no. (%)
same,Embolic stroke,[1],0 no. (%)
same,Hemiparesis,[1],1 (1.5) no. (%)
same,Motor dysfunction,[1],0 no. (%)
same,Nervous system disorder,[1],0 no. (%)
same,Neurologic neglect syndrome,[1],1 (1.5) no. (%)
same,Neurotoxicity,[1],0 no. (%)
same,Peripheral sensorimotor neuropathy,[1],2 (2.9) no. (%)
same,Quadriparesis,[1],0 no. (%)
same,Seizure,[1],0 no. (%)
same,Syncope,[1],2 (2.9) no. (%)
same,Vocal cord paralysis,[1],0 no. (%)
same,Anxiety,"Grade 3, psychiatric disorders",0 no. (%)
same,Confusional state,"Grade 3, psychiatric disorders",0 no. (%)
same,Mental status changes,"Grade 3, psychiatric disorders",0 no. (%)
same,Acute kidney injury,[2],0 no. (%)
same,Urinary retention,[2],0 no. (%)
same,Acute respiratory failure,[3],0 no. (%)
same,Atelectasis,[3],2 (2.9) no. (%)
same,Bronchial obstruction,[3],0 no. (%)
same,Bronchopleural fistula,[3],0 no. (%)
same,Chronic obstructive pulmonary disease,[3],1 (1.5) no. (%)
same,Cough,[3],0 no. (%)
same,Dyspnoea,[3],2 (2.9) no. (%)
same,Esophago-bronchial fistula,[3],0 no. (%)
same,Hemoptysis,[3],1 (1.5) no. (%)
same,Hypoxia,[3],2 (2.9) no. (%)
same,Interstitial lung disease,[3],0 no. (%)
same,Pleural effusion,[3],4 (5.9) no. (%)
same,Pneumonia aspiration,[3],0 no. (%)
same,Pneumonitis,[3],1 (1.5) no. (%)
same,Pulmonary embolism,[3],1 (1.5) no. (%)
same,Pulmonary hemorrhage,[3],0 no. (%)
same,Respiratory failure,[3],0 no. (%)
same,Alopecia,[4],1 (1.5) no. (%)
same,Dermatitis exfoliative,[4],0 no. (%)
same,Pruritus,[4],0 no. (%)
same,Rash,[4],0 no. (%)
same,Rash erythematous,[4],0 no. (%)
same,Rash maculopapular,[4],0 no. (%)
same,Skin erosion,[4],0 no. (%)
same,Skin reaction,[4],0 no. (%)
same,Skin toxicity,[4],0 no. (%)
same,Deep vein thrombosis,"Grade 3, vascular disorders",0 no. (%)
same,Embolism,"Grade 3, vascular disorders",0 no. (%)
same,Hypertension,"Grade 3, vascular disorders",0 no. (%)
same,Jugular vein thrombosis,"Grade 3, vascular disorders",0 no. (%)
same,Peripheral arterial occlusive disease,"Grade 3, vascular disorders",0 no. (%)
same,Vena cava embolism,"Grade 3, vascular disorders",0 no. (%)
same,Acute myocardial infarction,Grade 4,0 no. (%)
same,Adenocarcinoma of colon,Grade 4,0 no. (%)
same,Alanine aminotransferase increased,Grade 4,0 no. (%)
same,Anemia,Grade 4,0 no. (%)
same,Anemia macrocytic,Grade 4,0 no. (%)
same,Any adverse event,Grade 4,16 (23.5) no. (%)
same,Arthralgia,Grade 4,0 no. (%)
same,Ascites,Grade 4,0 no. (%)
same,Aspergillus infection,Grade 4,0 no. (%)
same,Asthenia,Grade 4,0 no. (%)
same,Atrial tachycardia,Grade 4,0 no. (%)
same,Autoimmune colitis,Grade 4,0 no. (%)
same,Back pain,Grade 4,0 no. (%)
same,Blood bilirubin increased,Grade 4,0 no. (%)
same,Bone pain,Grade 4,0 no. (%)
same,Bronchiolitis,Grade 4,0 no. (%)
same,Bronchitis,Grade 4,0 no. (%)
same,C-reactive protein increased,Grade 4,0 no. (%)
same,Cancer pain,Grade 4,0 no. (%)
same,Cardiac failure congestive,Grade 4,0 no. (%)
same,Cardiac tamponade,Grade 4,0 no. (%)
same,Cardiac ventricular thrombosis,Grade 4,0 no. (%)
same,Cataract,Grade 4,0 no. (%)
same,Chest pain,Grade 4,0 no. (%)
same,Cholangitis,Grade 4,0 no. (%)
same,Cholecystitis,Grade 4,0 no. (%)
same,Cholelithiasis,Grade 4,0 no. (%)
same,Clostridium bacteremia,Grade 4,0 no. (%)
same,Coronary artery disease,Grade 4,0 no. (%)
same,Decreased appetite,Grade 4,0 no. (%)
same,Dehydration,Grade 4,0 no. (%)
same,Diarrhea,Grade 4,0 no. (%)
same,Diverticulitis,Grade 4,0 no. (%)
same,Drug hypersensitivity,Grade 4,0 no. (%)
same,Encephalitis,Grade 4,0 no. (%)
same,Esophagitis,Grade 4,0 no. (%)
same,Euthanasia,Grade 4,0 no. (%)
same,Fatigue,Grade 4,0 no. (%)
same,Febrile neutropenia,Grade 4,0 no. (%)
same,Femoral neck fracture,Grade 4,0 no. (%)
same,Forced expiratory volume decreased,Grade 4,0 no. (%)
same,Gastroenteritis norovirus,Grade 4,0 no. (%)
same,Gastroenteritis salmonella,Grade 4,0 no. (%)
same,General physical health deterioration,Grade 4,0 no. (%)
same,Hematochezia,Grade 4,0 no. (%)
same,Hepatic enzyme increased,Grade 4,0 no. (%)
same,Hip fracture,Grade 4,0 no. (%)
same,Hypercalcemia,Grade 4,0 no. (%)
same,Hyperglycemia,Grade 4,0 no. (%)
same,Hyperkalaemia,Grade 4,0 no. (%)
same,Hypertriglyceridaemia,Grade 4,0 no. (%)
same,Hypoalbuminemia,Grade 4,0 no. (%)
same,Hypocalcaemia,Grade 4,0 no. (%)
same,Hypokalemia,Grade 4,0 no. (%)
same,Hyponatremia,Grade 4,0 no. (%)
same,Ileus,Grade 4,0 no. (%)
same,Infection,Grade 4,0 no. (%)
same,Intestinal dilatation,Grade 4,0 no. (%)
same,Intestinal hemorrhage,Grade 4,0 no. (%)
same,Intestinal perforation,Grade 4,0 no. (%)
same,Large intestine perforation,Grade 4,0 no. (%)
same,Leukopenia,Grade 4,0 no. (%)
same,Liver disorder,Grade 4,0 no. (%)
same,Localized oedema,Grade 4,0 no. (%)
same,Lung abscess,Grade 4,0 no. (%)
same,Lymphocyte count decreased,Grade 4,0 no. (%)
same,Lymphopenia,Grade 4,0 no. (%)
same,Malignant ascites,Grade 4,0 no. (%)
same,Malignant pleural effusion,Grade 4,0 no. (%)
same,Malnutrition,Grade 4,0 no. (%)
